The test system of the test is SARS-CoV-2. Type of test: cell-based. Conditions: 200 μM, Vero E6, CCK8.

Consider `CCN1Cc2cc(OC)c(OC)cc2-c2cccc(N)c21` [Compound 12, 5-Ethyl-8,9-dimethoxy-5,6-dihydrophenanthridin-4-amine], for which the “protection on cells from death caused by viral infection” value is recorded as ~100%. As for `CCN1Cc2cc(OC)c(OC)cc2-c2cccc(NC(=O)C(F)(F)F)c21` [Compound 16, N-(5-Ethyl-8,9-dimethoxy-5,6-dihydrophenanthridin-4-yl)-2,2,2-trifluoroacetamide], the “protection on cells from death caused by viral infection” value was ~100%.
